Laboratory results: patent US7462635B2, “Thiazole and oxazole VDAC regulator” (Takeda Pharmaceutical Company Limited, priority 2002, dated 2008)

What was measured:
[1] = molecular target: T1, voltage-dependent anion channel (VDAC)-1 (Homo sapiens, UniProt P21796); assay: Identification of Compound (5)-binding protein: elution from Compound A-immobilized latex particles, SDS-PAGE, TOF-MS, immunoblotting; conditions: SK-N-SH nuclear fraction protein; elution with 300 μM Compound (5), 4° C., 1.5 hours; silver staining
T1 construct: protein was extracted from the nuclear fraction of human neuroblastoma SK-N-SH (ATCC); endogenous in cells; host or cells: SK-N-SH human neuroblastoma cells (ATCC)
Method: (§1) After 5 mg of carboxyl group-type latex particles obtained in Reference Example 1 was dispersed in dioxane, 23 mg of N-hydroxysuccinimide and 38 mg of water-soluble carbodiimide were added, and they were reacted at room temperature (about 20 to 25° C., the same applies below) for 2 hours. After the obtained succinimide-immobilized particles were washed with methanol, they were reacted with 4 mM Compound A (amino derivative of Compound (5)) in 0.5 mL of 0.2M sodium acetate buffer solution (pH 5.3) at room temperature for 1 hour to thereby immobilize Compound A onto the particles. To the obtained particles, 1M aqueous solution of ethanolamine-hydrochloric acid (pH 8.5) was added, and they were reacted at room temperature or 2 hours to thereby block unreacted groups in the succinimide-immobilized particles, after which the particles were washed with 50% methanol and water to give Compound A-immobilized particles. The Compound A-immobilized particles were dispersed in water to obtain a concentration of 10 mg/mL and stored under refrigeration. […]
(§2) Subsequently, centrifugation (15, 000×g, 5 minutes) was carried out, the supernatant was removed, and the obtained particles were washed with 0.05TGEMN buffer. […] After centrifugation (15, 000×g, 5 minutes), the protein-containing supernatant was analyzed by SDS-PAGE. […]

VDAC-3 = molecular target: T2, VDAC-3 (Homo sapiens, UniProt Q9Y277); assay: Identification of Compound (5)-binding protein: elution from Compound A-immobilized latex particles, SDS-PAGE, TOF-MS; conditions: SK-N-SH nuclear fraction protein; elution with 300 μM Compound (5), 4° C., 1.5 hours; silver staining
T2 construct: protein was extracted from the nuclear fraction of human neuroblastoma SK-N-SH (ATCC); endogenous in cells; host or cells: SK-N-SH human neuroblastoma cells (ATCC)
T2 sequence (Q9Y277 1-283): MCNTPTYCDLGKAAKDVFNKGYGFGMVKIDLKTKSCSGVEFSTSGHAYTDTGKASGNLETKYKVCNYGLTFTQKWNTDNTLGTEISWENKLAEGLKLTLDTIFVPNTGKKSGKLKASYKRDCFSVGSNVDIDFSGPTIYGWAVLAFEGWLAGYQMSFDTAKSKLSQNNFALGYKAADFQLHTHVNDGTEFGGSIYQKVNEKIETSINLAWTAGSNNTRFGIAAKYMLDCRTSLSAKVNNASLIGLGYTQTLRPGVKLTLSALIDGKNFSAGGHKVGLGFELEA
Method: as §1, §2

PC12 cells [2] = assay: Cytochrome c leakage suppressing action (cytochrome c ELISA of cytoplasmic protein); type: cell-based; conditions: DMEM with 0.5% FCS, 0.3 μmol/L Compound (5), 16 hours, 0.5% FCS group without compound 19.4
Method: The effect of Compound (5) on VDAC function was evaluated by determining the amount of cytochrome c leakage in the cytoplasm of PC12 cells.
PC12 cells, pre-cultured in a DMEM (Dulbecco's Modified Eagle's Medium) containing 10% FCS (Fetal Calf Serum), were sown to a culture dish of 10 cm diameter (Falcon) and cultured until they became nearly confluent. After the culture dish was washed with DMEM, a DMEM containing 0.5% FCS (0.5% FCS group) or a DMEM containing 0.5% FCS and 0.3 μmol/L Compound (5) (0.5% FCS+Compound (5) group) was added, and the cells were further cultured for 16 hours. The cells suspended in the culture broth and the cells adhering to the culture dish, detached by trypsin-EDTA treatment, were recovered. The recovered cells, after being washed with PBS, were ice-cooled in a digitonin solution [10 mmol/L HEPES, 0.3 mol/L mannitol, 0.1% (w/v) BSA, 100 μmol/L digitonin] (100 μL) for 5 minutes to extract cytoplasmic protein. After the obtained cytoplasmic protein was centrifuged at 8500×g for 5 minutes, 12 μL of the supernatant was analyzed using an assay kit [cytochrome c ELISA kit (MBL) and […] (Pierce), respectively] to determine its cytochrome c content and protein content. Subsequently, the cytochrome c content per unit amount of total protein was calculated, and this was taken as the amount of cytochrome c leakage (ng/mg). The results are shown in [Table 1].

PC12 cells [3] = assay: Apoptosis-suppressing action: nucleosome content (Cell Death Detection ELISA), low serum-induced apoptosis; type: cell-based; conditions: DMEM with 0.5% FCS, 0.3 μmol/L Compound (5), 24 hours, 10% FCS group = 100%, 0.5% FCS group 422
Method: The apoptosis-suppressing action of Compound (5) was evaluated by determining the nucleosome content in PC12 cells.
PC12 cells, pre-cultured in a DMEM containing 10% FCS, were sown to a 24-well culture plate to obtain a concentration of 6×10^4 cells/well, and cultured for 24 hours. After the culture plate was washed with DMEM, a DMEM containing 0.5% FCS (0.5% FCS group) or a DMEM containing 0.5% FCS and 0.3 μmol/L Compound (5) (0.5% FCS+Compound (5) group) was added, and the cells were further cultured for 24 hours. Also, as a control group, the same procedures were carried out using a DMEM containing 10% FCS (10% FCS group). The cells suspended in the culture broth and the cells adhering to the culture plate, detached by trypsin-EDTA treatment, were recovered. According to the protocol of an apoptosis assay kit with nucleosome detection as an index (Cell Death Detection ELISA, Roche), the recovered cells were suspended in 500 μL of the cytolytic solution attached to said assay kit. After the suspension was ice-cooled for 30 minutes, it was centrifuged at 15, 000 rpm for 10 minutes and 400 μL of the supernatant was recovered. Said supernatant was diluted 2 fold and subjected to ELISA to determine its nucleosome content. Subsequently, taking the nucleosome content in the 10% FCS group as 100%, percentage in each group was calculated. The results are shown in [Table 2].

PC12 cells [4] = assay: Mitochondria respiration activity-increasing action using Alamar Blue; type: cell-based; conditions: FCS-free DMEM, 3 μmol/L, 3 hours, B-27 addition group = 100%, non-addition group 73.2%±1.9%, mean±standard deviation, n=7
Method: The mitochondria respiration activity-increasing action of Compound (5) was evaluated using Alamar Blue.
(§3) After PC12 cells, pre-cultured in a DMEM containing 10% fetal calf serum (FCS), were suspended in the same medium to obtain a concentration of 2×10^5 cells/mL, the obtained suspension was sown to a 96-well culture plate to obtain a concentration of 0.1 mL/well and cultured for 24 hours. After said culture plate was washed with DMEM, a solution obtained by diluting Compound (5) in FCS-free DMEM to obtain a concentration of 3 μmol/L was added, and cultivation was carried out for 3 hours [Compound (5) addition group]. […]
(§4) Subsequently, to each well of the culture plate, 10 μL of Alamar Blue solution (Alamar Biosciences), which is a mitochondria respiration activity indicator, was added; fluorescence just after the addition and after the plate was allowed to stand in a 5% CO2 incubator at 37° C. for 10 minutes was determined using a Fluoroscan (Flow Laboratories) [excitation wavelength (Ex.): 538 nm, emission wavelength (Em.): 590 nm], and its variation was obtained.
Furthermore, taking the fluorescence variation in the B-27 addition group as 100%, relative values of fluorescence variation in the Compound (5) addition group and the Compound (5) non-addition group were calculated.

PC12 cells [5] = assay: Mitochondria membrane potential-stabilizing action using Rodamin 123; type: cell-based; conditions: FCS-free DMEM, 3 μmol/L, 4 hours, FCS addition group = 100%, non-addition group 131.2±12.9%, mean±standard deviation, n=8
Method: The mitochondria membrane potential-stabilizing action of Compound (5) was evaluated using Rodamin 123 (trade name, Molecular Probe).
as §3, with “said culture-plate” for “said culture plate”, “for 4” for “for 3”
as §4, with “Rodamin 123 (trade name, Molecular Probe),” for “10 μL of Alamar Blue solution (Alamar Biosciences),”, “membrane potential” for “respiration activity”, “added to obtain a concentration of 1 μmol/L;” for “added;”, “485” for “538”, “538” for “590”
Furthermore, taking the fluorescence variation in the FCS addition group as 100%, relative values of fluorescence variation in the Compound (5) addition group and the Compound (5) non-addition group were calculated.

T1 sequence (P21796 whole entry): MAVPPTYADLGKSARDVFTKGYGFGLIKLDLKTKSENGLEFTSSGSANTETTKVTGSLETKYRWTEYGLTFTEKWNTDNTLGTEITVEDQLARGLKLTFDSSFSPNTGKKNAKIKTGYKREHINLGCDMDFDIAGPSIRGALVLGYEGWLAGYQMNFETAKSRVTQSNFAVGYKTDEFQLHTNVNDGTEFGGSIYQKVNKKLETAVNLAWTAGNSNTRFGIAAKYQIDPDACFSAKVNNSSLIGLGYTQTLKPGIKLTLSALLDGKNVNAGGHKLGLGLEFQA

Cc1ccccc1OCCCc1oc(-n2ccnc2C)nc1-c1ccc(Cl)cc1 [Compound (5), 4-(4-chlorophenyl)-2-(2-methyl-1-imidazolyl)-5-[3-(2-methylphenoxy)propyl]oxazole]
about 32 kDa protein band (VDAC-1) eluted from Compound A-immobilized particles [1]: eluted selectively | about 30 kDa protein band (VDAC-3) eluted from Compound A-immobilized particles (VDAC-3): eluted selectively | Amount of cytochrome c leakage (PC12 cells [2]): 7.0 ng/mg | Nucleosome content (PC12 cells [3]): 176% | fluorescence variation (Alamar Blue), relative value (PC12 cells [4]): 126.7%±15.7% | fluorescence variation (Rodamin 123), relative value (PC12 cells [5]): 110.0%±8.0%
